Test results as given in article PMC2984425, “Safety and pharmacokinetics of novel selective vascular endothelial growth factor receptor-2 inhibitor YN968D1 in patients with advanced malignancies” (BMC Cancer, 2010).

Tested on: patients with advanced solid tumors
Experiment: Treatment-related adverse events graded by NCI-CTC v3.0
Type: in vivo, human
Experimental: Medical records and laboratory tests were obtained during screening. Physical examination, routine laboratory evaluations, and performance status were assessed at baseline and at specified time points throughout the trial. AEs and concomitant medications were recorded at the end of each cycle. The safety evaluation period extended through 30 days from the last dose of study drug or through recovery to grade 1 or better from all acute toxicities associated with drug administration. Toxicity was evaluated and graded according to the NCI-CTC for Adverse Events, version 3.0.

`N#CC1(c2ccc(NC(=O)c3cccnc3NCc3ccncc3)cc2)CCCC1` [apatinib] was tested, and the “Anemia grade 1-2, %” value (250 mg cohort) was 25.0%, the “Anemia grade 1-2, No.” value (250 mg cohort) was 1 and the “Hyperbilirubinemia grade 3-4, %” value (250 mg cohort) was 25%. The “Hyperbilirubinemia grade 3-4, No.” value (250 mg cohort) was 1, the “Hypertension grade 1-2, %” value (250 mg cohort) was 50% and the “Hypertension grade 1-2, No.” value (250 mg cohort) was 2. The “Infection grade 1-2, %” value (250 mg cohort) was 25.0%, the “Infection grade 1-2, No.” value (250 mg cohort) was 1 and the “Proteinuria grade 3-4, %” value (250 mg cohort) was 25.0%. For the same compound, the “Proteinuria grade 3-4, No.” value (250 mg cohort) was 1, the “Thrombocytopenia grade 1-2, %” value (250 mg cohort) was 25.0% and the “Thrombocytopenia grade 1-2, No.” value (250 mg cohort) was 1. For the same compound, the “Transaminase Increased grade 1-2, %” value (250 mg cohort) was 50.0%, the “Transaminase Increased grade 1-2, No.” value (250 mg cohort) was 2 and the “Anemia grade 1-2, %” value (500 mg cohort) was 9%. The “Anemia grade 1-2, No.” value (500 mg cohort) was 1, the “Anorexia grade 1-2, %” value (500 mg cohort) was 18.2% and the “Anorexia grade 1-2, No.” value (500 mg cohort) was 2. The “Diarrhea grade 1-2, %” value (500 mg cohort) was 9%, the “Diarrhea grade 1-2, No.” value (500 mg cohort) was 1 and the “Fatigue grade 1-2, %” value (500 mg cohort) was 9%. The “Fatigue grade 1-2, No.” value (500 mg cohort) was 1, the “Hand-Food Syndrome grade 1-2, %” value (500 mg cohort) was 36.4% and the “Hand-Food Syndrome grade 1-2, No.” value (500 mg cohort) was 4. The “Hand-Food Syndrome grade 3-4, %” value (500 mg cohort) was 9%, the “Hand-Food Syndrome grade 3-4, No.” value (500 mg cohort) was 1 and the “Hemorrhage grade 1-2, %” value (500 mg cohort) was 36.4%. For the same compound, the “Hemorrhage grade 1-2, No.” value (500 mg cohort) was 4, the “Hemorrhage grade 3-4, %” value (500 mg cohort) was 9% and the “Hemorrhage grade 3-4, No.” value (500 mg cohort) was 1. For the same compound, the “Hoarseness grade 1-2, %” value (500 mg cohort) was 9%, the “Hoarseness grade 1-2, No.” value (500 mg cohort) was 1 and the “Hypertension grade 1-2, %” value (500 mg cohort) was 63.6%. For the same compound, the “Hypertension grade 1-2, No.” value (500 mg cohort) was 7, the “Infection grade 1-2, %” value (500 mg cohort) was 9% and the “Infection grade 1-2, No.” value (500 mg cohort) was 1. For the same compound, the “Mucosal ulcers grade 1-2, %” value (500 mg cohort) was 18.2%, the “Mucosal ulcers grade 1-2, No.” value (500 mg cohort) was 2 and the “Neutropenia grade 1-2, %” value (500 mg cohort) was 18.2%. The “Neutropenia grade 1-2, No.” value (500 mg cohort) was 2, the “Neutropenia grade 3-4, %” value (500 mg cohort) was 18.2% and the “Neutropenia grade 3-4, No.” value (500 mg cohort) was 2. The “Pain grade 1-2, %” value (500 mg cohort) was 36.4%, the “Pain grade 1-2, No.” value (500 mg cohort) was 4 and the “Pain grade 3-4, %” value (500 mg cohort) was 18.2%. For the same compound, the “Pain grade 3-4, No.” value (500 mg cohort) was 2, the “Proteinuria grade 1-2, %” value (500 mg cohort) was 36.4% and the “Proteinuria grade 1-2, No.” value (500 mg cohort) was 4. The “Proteinuria grade 3-4, %” value (500 mg cohort) was 9%, the “Proteinuria grade 3-4, No.” value (500 mg cohort) was 1 and the “Rash grade 1-2, %” value (500 mg cohort) was 9%. The “Rash grade 1-2, No.” value (500 mg cohort) was 1, the “Thrombocytopenia grade 1-2, %” value (500 mg cohort) was 18.2% and the “Thrombocytopenia grade 1-2, No.” value (500 mg cohort) was 2. For the same compound, the “Thrombocytopenia grade 3-4, %” value (500 mg cohort) was 0%, the “Thrombocytopenia grade 3-4, No.” value (500 mg cohort) was 0 and the “Transaminase Increased grade 1-2, %” value (500 mg cohort) was 9%. The “Transaminase Increased grade 1-2, No.” value (500 mg cohort) was 1, the “Transaminase Increased grade 3-4, %” value (500 mg cohort) was 9% and the “Transaminase Increased grade 3-4, No.” value (500 mg cohort) was 1. For the same compound, the “Vomiting grade 1-2, %” value (500 mg cohort) was 0%, the “Vomiting grade 1-2, No.” value (500 mg cohort) was 0 and the “Albinism grade 1-2, %” value (750 mg cohort) was 6.7%. For the same compound, the “Albinism grade 1-2, No.” value (750 mg cohort) was 1, the “Anemia grade 1-2, %” value (750 mg cohort) was 20% and the “Anemia grade 1-2, No.” value (750 mg cohort) was 3. For the same compound, the “Anorexia grade 1-2, %” value (750 mg cohort) was 20%, the “Anorexia grade 1-2, No.” value (750 mg cohort) was 3 and the “Diarrhea grade 1-2, %” value (750 mg cohort) was 20%. For the same compound, the “Diarrhea grade 1-2, No.” value (750 mg cohort) was 3, the “Fatigue grade 1-2, %” value (750 mg cohort) was 26.7% and the “Fatigue grade 1-2, No.” value (750 mg cohort) was 4. The “Fatigue grade 3-4, %” value (750 mg cohort) was 6.7%, the “Fatigue grade 3-4, No.” value (750 mg cohort) was 1 and the “Hand-Food Syndrome grade 1-2, %” value (750 mg cohort) was 46.7%. The “Hand-Food Syndrome grade 1-2, No.” value (750 mg cohort) was 7, the “Hand-Food Syndrome grade 3-4, %” value (750 mg cohort) was 13.3% and the “Hand-Food Syndrome grade 3-4, No.” value (750 mg cohort) was 2. The “Hemorrhage grade 1-2, %” value (750 mg cohort) was 33.3%, the “Hemorrhage grade 1-2, No.” value (750 mg cohort) was 5 and the “Hoarseness grade 1-2, %” value (750 mg cohort) was 13.3%. The “Hoarseness grade 1-2, No.” value (750 mg cohort) was 2, the “Hypertension grade 1-2, %” value (750 mg cohort) was 60% and the “Hypertension grade 1-2, No.” value (750 mg cohort) was 9. The “Hypertension grade 3-4, %” value (750 mg cohort) was 13.3%, the “Hypertension grade 3-4, No.” value (750 mg cohort) was 2 and the “Infection grade 1-2, %” value (750 mg cohort) was 26.7%. The “Infection grade 1-2, No.” value (750 mg cohort) was 4, the “Mucosal ulcers grade 1-2, %” value (750 mg cohort) was 13.3% and the “Mucosal ulcers grade 1-2, No.” value (750 mg cohort) was 2. For the same compound, the “Mucosal ulcers grade 3-4, %” value (750 mg cohort) was 13.3%, the “Mucosal ulcers grade 3-4, No.” value (750 mg cohort) was 2 and the “Neutropenia grade 1-2, %” value (750 mg cohort) was 46.7%. For the same compound, the “Neutropenia grade 1-2, No.” value (750 mg cohort) was 7, the “Pain grade 1-2, %” value (750 mg cohort) was 26.7% and the “Pain grade 1-2, No.” value (750 mg cohort) was 4. For the same compound, the “Pain grade 3-4, %” value (750 mg cohort) was 13.3%, the “Pain grade 3-4, No.” value (750 mg cohort) was 2 and the “Proteinuria grade 1-2, %” value (750 mg cohort) was 46.67%. The “Proteinuria grade 1-2, No.” value (750 mg cohort) was 7, the “Proteinuria grade 3-4, %” value (750 mg cohort) was 20% and the “Proteinuria grade 3-4, No.” value (750 mg cohort) was 3. The “Rash grade 1-2, %” value (750 mg cohort) was 6.7%, the “Rash grade 1-2, No.” value (750 mg cohort) was 1 and the “Thrombocytopenia grade 1-2, %” value (750 mg cohort) was 40%. The “Thrombocytopenia grade 1-2, No.” value (750 mg cohort) was 6, the “Transaminase Increased grade 1-2, %” value (750 mg cohort) was 40% and the “Transaminase Increased grade 1-2, No.” value (750 mg cohort) was 6. The “Vomiting grade 1-2, %” value (750 mg cohort) was 26.7%, the “Vomiting grade 1-2, No.” value (750 mg cohort) was 4 and the “Anemia grade 1-2, %” value (850 mg cohort) was 15.4%. The “Anemia grade 1-2, No.” value (850 mg cohort) was 2, the “Anemia grade 3-4, %” value (850 mg cohort) was 7.7% and the “Anemia grade 3-4, No.” value (850 mg cohort) was 1. The “Anorexia grade 1-2, %” value (850 mg cohort) was 7.7%, the “Anorexia grade 1-2, No.” value (850 mg cohort) was 1 and the “Diarrhea grade 1-2, %” value (850 mg cohort) was 15.4%. The “Diarrhea grade 1-2, No.” value (850 mg cohort) was 2, the “Dyspnea grade 1-2, %” value (850 mg cohort) was 7.7% and the “Dyspnea grade 1-2, No.” value (850 mg cohort) was 1. The “Fatigue grade 1-2, %” value (850 mg cohort) was 30.8%, the “Fatigue grade 1-2, No.” value (850 mg cohort) was 4 and the “Hand-Food Syndrome grade 1-2, %” value (850 mg cohort) was 30.8%. The “Hand-Food Syndrome grade 1-2, No.” value (850 mg cohort) was 4, the “Hand-Food Syndrome grade 3-4, %” value (850 mg cohort) was 15.4% and the “Hand-Food Syndrome grade 3-4, No.” value (850 mg cohort) was 2. For the same compound, the “Hemorrhage grade 1-2, %” value (850 mg cohort) was 7.7%, the “Hemorrhage grade 1-2, No.” value (850 mg cohort) was 1 and the “Hoarseness grade 1-2, %” value (850 mg cohort) was 7.7%.
